The values below are quoted from earlier work in patent US6831041B2, “Oil suspension concentrates based on a cyclohexenone oxime ether lithium salt and the use thereof as plant protection agents” (BASF Aktiengesellschaft, priority 2000, dated 2004).

Structures are written as SMILES.

The conditions of this data set: formulated together with calcium glyphosate as oil suspension concentrate.

For the molecule `CCCC(CC(C)=NOCC=CCl)C1=C(O)CC(C2CCCOC2)CC1=O` (stereo not shown) [2-{1-[2-(3-chloroallyloxy)iminopropyl]-butyl}-3-hydroxy-5-(tetrahydropyran-3-yl)cyclohex-2-enone], the “stability in formulation (in words)” value is on record as “insufficient stability”.
